From ChEMBL document CHEMBL3632589, “Investigation of 7-benzylidenenaltrexone derivatives as a novel structural antitrichomonal lead compound” (2015)
In brackets after ≈: the same amount, converted by molar mass.

System: Trichomonas vaginalis
Test: Antitrichomonal activity against Trichomonas vaginalis after 48 hrs by invert microscope analysis
Format: functional

Row | Compound | MIC [µM]
1 | O=C1/C(=C/c2ccc(F)cc2)C[C@@]2(O)[C@H]3Cc4ccc(O)c5c4[C@@]2(CCN3CC2CC2)[C@H]1O5 | 40 (≈ 17.9 µg/mL)
2 | COc1ccc(/C=C2\C[C@@]3(O)[C@H]4Cc5ccc(O)c6c5[C@@]3(CCN4CC3CC3)[C@@H](O6)C2=O)cc1 | 20 (≈ 9.19 µg/mL)
3 | CC1(C)SSC(C)(C)[C@@H](NC(=O)[C@@H](N)Cc2ccc(O)cc2)C(=O)NCC(=O)N[C@@H](Cc2ccccc2)C(=O)N[C@H]1C(=O)O | > 320
4 | CN(C)c1ccc(/C=C2\C[C@@]3(O)[C@H]4Cc5ccc(O)c6c5[C@@]3(CCN4CC3CC3)[C@@H](O6)C2=O)cc1 | 20 (≈ 9.45 µg/mL)
5 | O=C1/C(=C/c2ccccc2)C[C@@]2(O)[C@H]3Cc4ccc(O)c5c4[C@@]2(CCN3CC2CC2)[C@H]1O5 [BNTX] | 40 (≈ 17.2 µg/mL)
6 | CC(C)[C@H](NC(=O)[C@H](CCC(=O)O)NC(=O)[C@H](Cc1ccccc1)NC(=O)[C@@H](C)NC(=O)[C@@H](N)Cc1ccc(O)cc1)C(=O)N[C@H](C(=O)NCC(N)=O)C(C)C [DELTORPHIN II] | > 320
7 | Cc1ncc([N+](=O)[O-])n1CCO [METRONIDAZOLE] | 5 (≈ 0.856 µg/mL)
8 | Oc1ccc2c3c1O[C@H]1c4[nH]c5ccccc5c4C[C@@]4(O)[C@@H](C2)N(CC2CC2)CC[C@]314 [NALTRINDOLE] | 80 (≈ 33.2 µg/mL)
9 | C=CCN1C[C@H](C)N([C@H](c2ccc(C(=O)N(CC)CC)cc2)c2cccc(OC)c2)C[C@H]1C [SNC-80] | > 320
